Experimental data as given in US20100016307A1, “NOVEL COMPOUNDS” (priority 2006, published 2010).

What follows are compounds tested against T1, human Met Kinase (His6-GST fusion, aa 956-1390) (Homo sapiens, UniProt P08581) (assay: In vitro screen: kinase assay of purified Met kinase). Conditions: purified Met 1 nM, 10 μM ATP, 1 μM peptide substrate, 1 hour at room temperature; read-out: pIC50 values at the c-Met receptor (in vitro screen results) (converted).
T1 construct: His6 (N); GST (Glutathione-S-Transferase) (N); made in house; host or cells: baculovirus expression system in Sf9 cells
T1 sequence (P08581 956-1390): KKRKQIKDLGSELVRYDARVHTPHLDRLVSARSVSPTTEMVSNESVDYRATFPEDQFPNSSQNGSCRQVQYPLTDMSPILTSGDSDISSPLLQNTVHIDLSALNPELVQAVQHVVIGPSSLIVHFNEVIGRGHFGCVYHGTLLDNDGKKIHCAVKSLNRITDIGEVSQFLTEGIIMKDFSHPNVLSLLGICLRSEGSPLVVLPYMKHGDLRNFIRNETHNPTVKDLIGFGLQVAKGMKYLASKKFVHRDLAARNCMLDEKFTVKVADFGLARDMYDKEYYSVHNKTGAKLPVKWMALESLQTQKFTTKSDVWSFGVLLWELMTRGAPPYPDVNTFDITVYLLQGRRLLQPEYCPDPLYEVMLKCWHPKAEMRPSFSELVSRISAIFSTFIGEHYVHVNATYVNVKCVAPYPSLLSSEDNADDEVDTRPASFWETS
Format: biochemical
Procedure: The peptide substrate, Biotin-aminohexyl-EEEEYFELVAKKKK-amide was purchased from SynPep Solid sample is dissolved at approximately 2.5 mM in water (concentration determined by amino acid analysis) and aliquots stored at −20° C.
Met Kinase: A fusion protein consisting of His6-tagged Glutathione-S-Transferase (GST) and amino acid residues 956-1390 of human Met Kinase (aa 956-1390 of Entrez Protein Accession # EAL24359.1 (met proto-oncogene (hepatocyte growth factor receptor) [Homo sapiens])) from “www.ncbi.nlm.nih.gov/entrez/”) is purified from baculovirus expression system in Sf9 cells using Ni chelate column, GSH column, followed by size exclusion chromatography. Purity greater than 90%, estimated by SDS-PAGE, is achieved. Samples in 25 mM HEPES pH 7.5, 100 mM NaCl, 0.1 mM EDTA are stored at −80° C. until use.
Assays are performed in 96 well (Costar, Catalog No. 3789) or 384 well plates (Costar, Catalog No. 3705). Assay conditions for the peptide phosphorylation reaction (in 10, 20, 25, or 40 μl volume) mix are 100 mM Hepes buffer, pH 7.4; 0.1 mgml^−1 BSA; 5 mM MgCl2; 1 mM DTT; 10 μM ATP; purified Met (1 nM final); and 1 μM peptide substrate. Compounds, titrated in DMSO, are evaluated at concentrations ranging from 50 μM to 0.2 nM. […] Reactions are incubated for 1 hour at room temperature and are stopped by addition of detection reagents containing, at final detection volume, 12.5 mM EDTA; 100 mM Hepes; 0.1 mg/ml BSA; 8 nM Streptavidin APC (Perkin Elmer catalog #CR130-150); 1 nM Europium-labelled anti-phosphotyrosine antibody (Perkin Elmer catalog #AD0067). Under the assay conditions defined above, the Km (apparent) for ATP is determined to be 40 μM.
The data for compound dose responses were plotted as % Inhibition, calculated with the data reduction formula 100*(1−[(U1−C2)/(C1−C2)]), versus concentration of compound, where U is the unknown value, C1 is the average control value obtained for DMSO, and C2 is the average control value obtained for 0.05M EDTA. Data were fitted to the curve described by: y=((Vmax*x)/(K+x)) where Vmax is the upper asymptote and K is the IC50. The results for each compound were recorded as pIC50 calculated as follows: pIC50=−Log 10(K).

IC50 | Structure (SMILES)
< 0.01 µM | CS(=O)(=O)CCNC(=O)c1cc2c(Oc3ccc(NC(=O)C4(C(=O)Nc5ccc(F)cc5)CC4)cc3)ccnc2[nH]1 [Example 1, N^1-(4-Fluorophenyl)-N^1-(4-{[2-({[2-(methylsulfonyl)ethyl]amino}carbonyl)-1H-pyrrolo[2,3-b]pyridin-4-yl]oxy}phenyl)-1,1-cyclopropane dicarboxamide]
< 0.01 µM | O=C(NCCN1CCOCC1)c1cc2c(Oc3ccc(NC(=O)C4(C(=O)Nc5ccc(F)cc5)CC4)cc3)ccnc2[nH]1 [Example 4, N^1-(4-Fluorophenyl)-N^1-(4-{[2-({[2-(4-morpholinyl)ethyl]amino}carbonyl)-1H-pyrrolo[2,3-b]pyridin-4-yl]oxy}phenyl)-1,1-cyclopropane dicarboxamide]
< 0.01 µM | CN(C)CCCNC(=O)c1cc2c(Oc3ccc(NC(=O)C4(C(=O)Nc5ccc(F)cc5)CC4)cc3)ccnc2[nH]1 [Example 5, N^1-(4-{[2-({[3-(Dimethylamino)propyl]amino}carbonyl)-1H-pyrrolo[2,3-b]pyridin-4-yl]oxy}phenyl)-N^1-(4-fluorophenyl)-1,1-cyclopropane dicarboxamide]
< 0.01 µM | O=C(NCCO)c1cc2c(Oc3ccc(NC(=O)C4(C(=O)Nc5ccc(F)cc5)CC4)cc3)ccnc2[nH]1 [Example 7, N^1-(4-Fluorophenyl)-N^1-{4-[(2-{[(2-hydroxyethyl)amino]carbonyl}-1H-pyrrolo[2,3-b]pyridin-4-yl)oxy]phenyl}-1,1-cyclopropanedicarboxamide]
< 0.01 µM | NC(=O)CNC(=O)c1cc2c(Oc3ccc(NC(=O)C4(C(=O)Nc5ccc(F)cc5)CC4)cc3)ccnc2[nH]1 [Example 8, N^1-{4-[(2-{[(2-Amino-2-oxoethyl)amino]carbonyl}-1H-pyrrolo[2,3-b]pyridin-4-yl)oxy]phenyl}-N^1-(4-fluorophenyl)-1,1-cyclopropanedicarboxamide]
< 0.01 µM | O=C(NCCc1c[nH]cn1)c1cc2c(Oc3ccc(NC(=O)C4(C(=O)Nc5ccc(F)cc5)CC4)cc3)ccnc2[nH]1 [Example 9]
0.1 to 1 µM | O=C(Nc1ccc(F)cc1)C1(C(=O)Nc2ccc(Nc3ccnc4[nH]ccc34)cc2)CC1 [Example 15, N^1-(4-Fluorophenyl)-N^1-[4-(1H-pyrrolo[2,3-b]pyridin-4-ylamino)phenyl]-1,1-cyclopropanedicarboxamide]

These compounds were tested against T2, c-Met/cFms chimeric receptor in c-Met/cFms/NIH3T3 cells (Homo sapiens, UniProt P08581) (assay: Cell-based assay for c-Met autophosphorylation (ELISA)). Conditions: compounds 1 h at 37° C., M-CSF (600 ng/ml) stimulation 10 min.
T2 construct: The transmembrane/cytoplasmic domain fragment of c-Met (nucleotides 933 to 1390); expressed in transfected cells; the other entry of the earlier key: CSF1R (P07333, Macrophage colony-stimulating factor 1 receptor)
T2 sequence (P08581 with tags, fused parts or gaps): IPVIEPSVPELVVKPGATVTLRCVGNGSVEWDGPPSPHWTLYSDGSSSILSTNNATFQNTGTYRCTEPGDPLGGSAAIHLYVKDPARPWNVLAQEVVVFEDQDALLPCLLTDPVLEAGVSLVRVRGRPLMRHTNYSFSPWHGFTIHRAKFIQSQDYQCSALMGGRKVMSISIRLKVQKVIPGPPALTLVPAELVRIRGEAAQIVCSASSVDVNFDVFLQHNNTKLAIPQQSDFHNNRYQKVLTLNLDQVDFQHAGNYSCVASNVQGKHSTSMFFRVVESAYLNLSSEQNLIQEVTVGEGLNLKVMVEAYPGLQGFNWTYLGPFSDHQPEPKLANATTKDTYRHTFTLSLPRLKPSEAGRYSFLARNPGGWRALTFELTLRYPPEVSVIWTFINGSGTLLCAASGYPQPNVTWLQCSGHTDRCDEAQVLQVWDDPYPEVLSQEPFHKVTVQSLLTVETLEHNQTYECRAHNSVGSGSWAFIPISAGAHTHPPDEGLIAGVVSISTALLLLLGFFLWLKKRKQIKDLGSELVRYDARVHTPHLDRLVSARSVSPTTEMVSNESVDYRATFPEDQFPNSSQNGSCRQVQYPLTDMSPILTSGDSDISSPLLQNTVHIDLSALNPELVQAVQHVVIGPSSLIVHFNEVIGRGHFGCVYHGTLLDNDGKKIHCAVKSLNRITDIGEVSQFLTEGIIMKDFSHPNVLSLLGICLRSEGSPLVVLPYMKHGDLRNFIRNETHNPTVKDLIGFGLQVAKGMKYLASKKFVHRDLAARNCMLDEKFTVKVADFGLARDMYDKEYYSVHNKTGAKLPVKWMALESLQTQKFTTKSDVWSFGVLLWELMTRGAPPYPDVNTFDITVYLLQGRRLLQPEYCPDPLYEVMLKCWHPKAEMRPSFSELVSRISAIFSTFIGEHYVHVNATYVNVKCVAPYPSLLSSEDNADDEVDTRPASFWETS
Description: To generate a chimeric cDNA clone of c-Met with cFms, the extracellular domain of colony stimulating factor 1 receptor (CSF1R encoded by cFms gene) was fused with the transmembrane and cytoplasmic domain of c-Met. Reverse-transcribed RNA from human placenta was used as template to clone c-Met. The transmembrane/cytoplasmic domain fragment of c-Met (nucleotides 933 to 1390) containing a NotI site at both 5′- and 3′-end was generated by polymerase chain reaction (PCR) using following two oligonucleotides;
The resulting c-Met cDNA was cloned into pCR2.1-TOPO vector (c-Met/pCR2.1-TOPO). The extracellular domain fragment of cFms (nucleotides 1 to 512) containing BamHI site at 5′-end and NotI site at 3′-end was generated from human placenta cDNA by PCR using two oligonucleotides;
The resulting cFms cDNA was cloned into pcDNA3.1 vector (Invitrogen) using the BamHI and NotI sites (cFms/pcDNA3.1). To generate complete chimeric construct, the c-Met fragment (transmembrane and cytoplasmic domain) was digested with NotI sites (in c-Met/pCR2.1-TOPO vector) and then subcloned into cFms/pcDNA3.1 vector by NotI site (c-Met/cFms/pcDNA3.1).
NIH3T3 cells were grown in DMEM supplemented with 10% fetal bovine serum. NIH3T3 cells were transfected with c-Met/cFms/pcDNA3.1 vector alone using the calcium phosphate method according to the manufacturer's instructions. Three days after transfection, cells were selected with G418 (0.4 mgml^−1) for 14 days and the expression of c-Met chimeric receptor in the G418-resistant colonies of NIH3T3 (c-Met/cFms/NIH3T3) cells was analyzed by immunoblot. Autophosphorylation of c-Met induced by the stimulation with M-SCF, the ligand for CSF1R, was analyzed by immunoprecipitation and immunoblot, and prominent stable transfectant was selected for c-Met autophosphorylation assay. […]
c-Met/cFms/NIH3T3 cells were plated at 1×10^5 cells/well in collagen-coated 96-well microtitre plates and grown 24 h under standard culture conditions, followed by serum starvation for 1 h. The cells were incubated with compounds for 1 h at 37° C. and followed by M-CSF (600 ngml^−1) stimulation for 10 min at 37° C. The media was removed and the cells were lysed with 120 ul/well of lysis buffer (20 mM Tris-HCl pH8.0, 137 mM NaCl, 2 mM EDTA, 10% glycerol, 1% Triton X-100, 1 mM Na3VO4 and Protease Inhibitor Cocktail (Complete mini EDTA-free, Roche)). Then 100 ul/well of lysate was transferred to the antibody-coated (50 ng/well goat anti-cFms antibody in PBS) ELISA plate and incubated overnight at 4° C. Plates were washed five times with PBST (PBS containing 0.05% Tween-20). Primary antibody (biotin-conjugated anti-phosphotyrosine monoclonal antibody, PIERCE) was diluted 1:10,000 in PBST containing 1% BSA, added (100 ul/well) and incubated for 2 h at room temperature. After washing the plates five times with washing buffer, 100 ul/well of HRP-conjugated streptavidin (PIERCE) in PBST containing 1% BSA was added and incubated for 30 min at room temperature. After washing five times with PBST, 100 ul/well of SuperSignal ELISA Femto Substrate (PIERCE) was added and incubated for almost 1 min at room temperature. Chemiluminescence was measured using Wallac 1420 multilabel counter.
The IC50 was determined by using XLfit software (IDBS) with four-parameters, sigmoidal dose-response equation.

IC50 | Structure (SMILES)
1 to 3.16 µM | O=C(NCCN1CCNCC1)c1cc2c(Oc3ccc(NC(=O)C4(C(=O)Nc5ccc(F)cc5)CC4)cc3)ccnc2[nH]1 [Example 3, N^1-(4-Fluorophenyl)-N^1-(4-{[2-({[2-(1-piperazinyl)ethyl]amino}carbonyl)-1H-pyrrolo[2,3-b]pyridin-4-yl]oxy}phenyl)-1,1-cyclopropane dicarboxamide]
1 to 3.16 µM | CN(C)c1ccc(CNC(=O)c2cc3c(Oc4ccc(NC(=O)C5(C(=O)Nc6ccc(F)cc6)CC5)cc4)ccnc3[nH]2)cc1 [Example 11, N^1-[4-({2-[({[4-(Dimethylamino)phenyl]methyl}amino)carbonyl]-1H-pyrrolo[2,3-b]pyridin-4-yl}oxy)phenyl]-N^1-(4-fluorophenyl)-1,1-cyclopropane dicarboxamide]
1 to 3.16 µM | COc1ccccc1CNC(=O)c1cc2c(Oc3ccc(NC(=O)C4(C(=O)Nc5ccc(F)cc5)CC4)cc3)ccnc2[nH]1 [Example 12, N^1-(4-Fluorophenyl)-N^1-[4-({2-[({[2-(methyloxy)phenyl]methyl}amino)carbonyl]-1H-pyrrolo[2,3-b]pyridin-4-yl}oxy)phenyl]-1,1-cyclopropane dicarboxamide]
3.16 to 31.6 µM | COc1ccccc1NC(=O)c1cc2c(Oc3ccc(NC(=O)C4(C(=O)Nc5ccc(F)cc5)CC4)cc3)ccnc2[nH]1 [Example 13, N^1-(4-Fluorophenyl)-N^1-(4-{[2-({[2-(methyloxy)phenyl]amino}carbonyl)-1H-pyrrolo[2,3-b]pyridin-4-yl]oxy}phenyl)-1,1-cyclopropane dicarboxamide]
1 to 3.16 µM | CCOC(=O)c1cc2c(Nc3ccc(NC(=O)C4(C(=O)Nc5ccc(F)cc5)CC4)cc3)ccnc2[nH]1 [Example 17, Ethyl 4-[(4-{[(1-{[(4-fluorophenyl)amino]carbonyl}cyclopropyl)carbonyl]amino}phenyl)amino]-1H-pyrrolo[2,3-b]pyridine-2-carboxylate]
1 to 3.16 µM | O=C(NCCN1CCOCC1)c1cc2c(Nc3ccc(NC(=O)C4(C(=O)Nc5ccc(F)cc5)CC4)cc3)ccnc2[nH]1 [Example 19, N^1-(4-Fluorophenyl)-N^1-(4-{[2-({[2-(4-morpholinyl)ethyl]amino}carbonyl)-1H-pyrrolo[2,3-b]pyridin-4-yl]amino}phenyl)-1,1-cyclopropane dicarboxamide]
3.16 to 31.6 µM | O=C(NCCc1c[nH]cn1)c1cc2c(Nc3ccc(NC(=O)C4(C(=O)Nc5ccc(F)cc5)CC4)cc3)ccnc2[nH]1 [Example 20, N^1-(4-Fluorophenyl)-N^1-(4-{[2-({[2-(1H-imidazol-4-yl)ethyl]amino}carbonyl)-1H-pyrrolo[2,3-b]pyridin-4-yl]amino}phenyl)-1,1-cyclopropane dicarboxamide]
3.16 to 31.6 µM | CS(=O)(=O)CCNC(=O)c1cc2c(Nc3ccc(NC(=O)C4(C(=O)Nc5ccc(F)cc5)CC4)cc3)ccnc2[nH]1 [Example 21, N^1-(4-Fluorophenyl)-N^1-(4-{[2-({[2-(methylsulfonyl)ethyl]amino}carbonyl)-1H-pyrrolo[2,3-b]pyridin-4-yl]amino}phenyl)-1,1-cyclopropane dicarboxamide]
3.16 to 31.6 µM | O=C(Nc1ccc(F)cc1)C1(C(=O)Nc2ccc(Nc3ccnc4[nH]c(-c5ccccc5)cc34)cc2)CC1 [Example 22, N^1-(4-Fluorophenyl)-N^1-{4-[(2-phenyl-1H-pyrrolo[2,3-b]pyridin-4-yl)amino]phenyl}-1,1-cyclopropanedicarboxamide]
